Measured values as given in patent US20050020556A1, “Method for treating diseases using HSP90-inhibiting agents in combination with platinum coordination complexes” (Kosan Biosciences, Inc., priority 2003, published 2005).
Read-outs that look alike come from different tables or passages of the source.

Tests used:
ErbB2 protein [1] = test: ErbB2 protein expression in glioma cells; assay type: cell-based
[2] = clinical trials, cited from earlier work
[3] = background statement; cited from earlier work
ErbB2 protein [4] = test: ErbB2 protein expression in SKBr3 cells; assay type: cell-based, human
[5] = system: SKBr cells (human breast cancer cells); test: Cell viability (MTS) drug combination assay, combination index, SKBr-3 cells; assay type: cell-based; details: combination with 17-AAG, CI<1 synergism
Method: Human colon adenocarcinoma cell line, DLD-1, and human breast adenocarcinoma cell line, SKBr-3, were obtained from American Type Culture Collection (manassas, VA). […] Other cytotoxic agents were purchased commercially from suppliers such as Sigma Chemical Co. (St. Louis, Mo.) and Sequoia Research Products (Oxford, UK). Cells were seeded in duplicate in 96-well microtiter plates at a density of 5,000 cells per well and allowed to attach overnight. […] Cell viability was determined using the MTS assay (Promega). […] Based on the IC50 values of each individual drug, combined drug treatment was designed at constant ratios of two drugs, i.e., equivalent to the ratio of their IC50. […] The drug was then added to the cells and incubated for 48 hours. […] Cell viability was determined by the MTS assay. Synergism, additivity or antagonism was determined by median effect analysis using the combination index (CI) calculated using Calcusyn (Biosoft, Cambridge, UK). […] The quantities [Dx]1 and [Dx]2 represent the concentrations of the first and second drug, respectively, that when used alone provide a response of x % in the assay. […] The “enhancing” effect of two drugs can also be determined.

[6] = system: DLD-1 cells (human colorectal cancer cells); test: Cell viability (MTS) drug combination assay, combination index, DLD-1 cells; assay type: cell-based; details: combination with 17-AAG, CI<1 synergism
Method: Human colon adenocarcinoma cell line, DLD-1, and human breast adenocarcinoma cell line, SKBr-3, were obtained from American Type Culture Collection (manassas, VA). […] Other cytotoxic agents were purchased commercially from suppliers such as Sigma Chemical Co. (St. Louis, Mo.) and Sequoia Research Products (Oxford, UK). Cells were seeded in duplicate in 96-well microtiter plates at a density of 5,000 cells per well and allowed to attach overnight. […] Cell viability was determined using the MTS assay (Promega). […] Based on the IC50 values of each individual drug, combined drug treatment was designed at constant ratios of two drugs, i.e., equivalent to the ratio of their IC50. Two treatment schedules were used: In one schedule, the cells were exposed to 24 hours of 17-AAG or 17-DMAG. The drug was then added to the cells and incubated for 48 hours. […] Cell viability was determined by the MTS assay. Synergism, additivity or antagonism was determined by median effect analysis using the combination index (CI) calculated using Calcusyn (Biosoft, Cambridge, UK). […] The quantities [Dx]1 and [Dx]2 represent the concentrations of the first and second drug, respectively, that when used alone provide a response of x % in the assay. […] The “enhancing” effect of two drugs can also be determined.

[7] = 17-AAG Post-Administration (platinum complex 24 h, then 17-AAG 48 h)

17-(allylamino)-17-desmethoxygeldanamycin [17-AAG]
expression of ErbB2 protein (ErbB2 protein [1]): reduced the expression of ErbB2 protein
MTD ([2]; daily x 5 schedule): about 40 mg/m^2
MTD ([2]; once-weekly regimen): about 308 mg/m^2
MTD ([2]; twice-weekly regimen): about 220 mg/m^2
hepatotoxicity [3]: reduced hepatotoxicity
expression of ErbB2 protein (ErbB2 protein [4]): reduced the expression of ErbB2 protein

CO[C@H]1/C=C\C=C(/C)C(=O)NC2=CC(=O)C(NCCN(C)C)=C(C[C@@H](C)C[C@H](OC)[C@H](O)[C@@H](C)/C=C(\C)[C@@H]1OC(N)=O)C2=O [17-DMAG, 17-(2-dimethylaminoethyl)amino-17-desmethoxygeldanamycin]
expression of ErbB2 protein (ErbB2 protein [1]): reduced the expression of ErbB2 protein
expression of ErbB2 protein (ErbB2 protein [4]): reduced the expression of ErbB2 protein

N.N.[Cl][Pt][Cl] [Cisplatin, cisplatin]
CI value (combination index) [5, 7]: Enhancement
CI value (combination index) ([5]; 17-AAG Pre-Administration (17-AAG 24 h, then platinum complex 48 h)): No Effect
CI value (combination index) [6, 7]: No Effect
CI value (combination index) ([6]; 17-AAG Pre-Administration (17-AAG 24 h, then platinum complex 48 h), CI=1 additivity, CI>1 antagonism): No Effect

COC1=C2C[C@@H](C)C[C@H](OC)[C@H](O)[C@@H](C)/C=C(\C)[C@H](OC(N)=O)[C@@H](OC)/C=C\C=C(/C)C(=O)NC(=CC1=O)C2=O [geldanamycin, Geldanamycin]
hepatotoxicity [3]: unacceptable hepatotoxicity
